Data reported in patent US9221746B2, “Homo- and hetero-polyamino-acid derivatives of fullerene C60, method for producing same, and pharmaceutical compositions based on said derivatives” (priority 2011, dated 2015).
Like-named read-outs stand apart in the source and are kept apart here. Marks after values point to notes of the source that are not given here.

Key:
[1] = system: L1210 leukemia; type: in vivo, mice; settings: for ILT, %: increase in lifetime compared to the control; for Average body weight gain, M ± m / Percent inhibition relative to control / Average weight gain, M ± m: ascite development
Experimental: These studies were carried out at the Institute for Toxicology, St. Petersburg, 2006, according to “Guidelines for the Study of Antitumor Activity of Pharmacological Agents” (“Manual on Experimental (Preclinical) Study of New Pharmacological Agents,” Ministry of Public Health of the Russian Federation, Remedium, Moscow, 2000, pp. 319-325).
The L1210 leukemia, breast adenocarcinoma Ca-755, and Lewis carcinoma (3LL) tumor cell strain were purchased from the Petrov Research Institute for Oncology, the Ministry of Public Health of the Russian Federation (St. Petersburg).
DBA/2 line mice with transplanted L1210 leukemia cells. Mouse ages: 6 to 8 weeks; body weights: 19 to 25 g.
The antitumor effect was ascertained through the following parameters: • ascite accumulation as animal body weight gain; • the lifetime of animals; and • tumor growth. The larger dimension of the tumor (length) and the smaller dimension normal thereto (width) were measured. The tumor volume was calculated, and the inhibition of tumor growth was calculated by a formula. The ascertainment criterion was the day when each individual tumor reached a volume of 500 mm^3.
During the experiment, the animals were weighed daily with the goal of evaluating ascite accumulation and studying the agents compared on this process.

[2] = system: human lymphoblastoid cells; experiment: Cytotoxicity in human lymphoblastoid cells model; type: cell-based

## Fullerene Poly(Aminocaproic Acid) of Formula C60(H3){NH(CH2)5COO—}3{NH3^+(CH2)5COOH}3 [Agent No. 1]
[1]; 100 mg/kg
  ALT in days, M ± m: 10.7 ± 37 days
  ILT, %: 78.33%
[1]; 100 mg/kg, listed as agent
  ALT in days, M ± m: 10.7 ± 0.37 days
[1]; 200 mg/kg
  average lifetime: 10.60 ± 0.37 days
  percent increase in lifetime compared to the control: 76.67%
[1]; 250 mg/kg
  ALT in days, M ± m: 10.60 ± 37 days
  ILT, %: 76.67%
[1]; 250 mg/kg versus 100 mg/kg
  factor by which average body weight gain is lower at 250 mg/kg than at 100 mg/kg: 1.5
[1]; 100 mg/kg, day 1
  Average body weight gain, M ± m: 0.3 ± 0.2
[1]; 100 mg/kg, day 2
  Average body weight gain, M ± m: 0.8 ± 0.4
[1]; 100 mg/kg, day 3
  Average body weight gain, M ± m: 2.5 ± 0.5
  Percent inhibition relative to control: 50.0%*
[1]; 100 mg/kg, day 4
  Average body weight gain, M ± m: 4.2 ± 1.0
  Percent inhibition relative to control: 63.2%*
[1]; 100 mg/kg, day 5
  Average body weight gain, M ± m: 8.4 ± 1.2
  Percent inhibition relative to control: 48.5%*
[1]; 100 mg/kg, day 6
  Average body weight gain, M ± m: 12.1 ± 2.1
  Percent inhibition relative to control: 42.9%*
[1]; 100 mg/kg, day 7
  Average body weight gain, M ± m: 14.2 ± 2.2
  Percent inhibition relative to control: 46.0%*
[1]; 250 mg/kg, day 1
  Average weight gain, M ± m: 0.3 ± 0.1
[1]; 250 mg/kg, day 2
  Average weight gain, M ± m: 0.5 ± 0.3
[1]; 250 mg/kg, day 3
  Average weight gain, M ± m: 1.1 ± 0.4
  Percent inhibition relative to control: 78.0%*
[1]; 250 mg/kg, day 4
  Average weight gain, M ± m: 2.8 ± 0.9
  Percent inhibition relative to control: 75.4%*
[1]; 250 mg/kg, day 5
  Average weight gain, M ± m: 4.7 ± 1.2
  Percent inhibition relative to control: 71.2%*
[1]; 250 mg/kg, day 6
  Average weight gain, M ± m: 8.4 ± 1.6
  Percent inhibition relative to control: 60.4%*
[1]; 250 mg/kg, day 7
  Average weight gain, M ± m: 10.0 ± 1.3
  Percent inhibition relative to control: 62.0%*
[1]; mouse, in vivo
  intoxication signatures: No intoxication signatures were detected
[2]; 0.5 mcg/mL
  Cell survival rate, %: 95%
  Number of cells × 10^3/mL: 833 × 10^3/mL
[2]; 1.0 mcg/mL
  Cell survival rate, %: 94%
  Number of cells × 10^3/mL: 833 × 10^3/mL
[2]; 5.0 mcg/mL
  Cell survival rate, %: 98%
  Number of cells × 10^3/mL: 799 × 10^3/mL
[2]; 10.0 mcg/mL
  Cell survival rate, %: 94%
  Number of cells × 10^3/mL: 767 × 10^3/mL
[2]; 100 mcg/mL
  Cell survival rate, %: 95%
[2]; concentrations of 0.5 to 10 mcg/mL
  cytotoxic effect on cells: no cytotoxic effect
